{"source": "patent US20240239829A1", "about": "(priority 2021, published 2024)", "key": {"[1]": {"test_system": "respiratory infection", "assay": "Prevention of respiratory infections of weaning piglets", "format": "in vivo", "text": "The sick rate was about 10% and the death rate was about 5%. […] Control feed comprised 500 grams of Tilmicosin per 1000 kg. The nursery feeds were given to 763 of weaning piglets and 750 of controls from day 15 of the weaning period."}, "[2]": {"conditions": "for stability: compound alone, 5 mg/ml, 37° C., SGF pH 1.0, PBS pH 4.5, SIF pH 7.3, 0.5-6 hours"}, "[3]": {"test_system": "human lung epithelium cell line A549", "assay": "Antibody binding to healthy or damaged A549 cells", "format": "cell-based"}, "[4]": {"test_system": "human fetal tissues", "assay": "Antibody binding to human fetal tissues (tissue array slides)", "conditions": "lung, heart, kidney, brain, pancreas, liver, thymus and testicle", "text": "(§1) Further, the Regn10987 antibody from COVID-19 infected patient and fetal tissues or multiple diseased tissues of tissue array slides (purchased from US Biomax) were used to evaluate the pathogenicity of the antibody specific to the SARS-CoV-2 S1 protein. […] In addition, the Regn10987 bound broadly to the human inflammatory tissues or cancer tissues of respiratory, cardiovesvular, urinary and digestive system (FIGS. 17A and 17B). The human inflammatory diseases tested include pneumonia, bronchitis, bronchiectasis, valvular disease, rheumatoid valvular disease, myocarditis, esophagitis, gastritis, collitis, appendicitis, pancreatitis, and hepatitis. The cancer tissues tested include small cell lung carcinoma, kidney clear cell carcinoma, and myxoma."}, "[5]": {"test_system": "human inflammatory tissues or cancer tissues", "assay": "Antibody binding to human diseased tissues (tissue array slides)", "conditions": "respiratory, cardiovascular, urinary and digestive system", "text": "as §1"}, "[6]": {"test_system": "fetus and newborn mouse pups of timed-pregnant mice"}, "[7]": {"test_system": "A/PR/8/34(H1N1) influenza virus", "design": "species or system C57BL/6J mice", "conditions": "mouse, in vivo"}, "[8]": {"test_system": "A/H3N2/Hong Kong/1/68 influenza virus", "design": "species or system C57BL/6J mice", "conditions": "mouse, in vivo"}}, "note": "Where two headings read alike, the source gives them in different places."}
{"molecule": "CC[C@H]1OC(=O)C[C@@H](O)[C@H](C)[C@@H](O[C@@H]2O[C@H](C)[C@@H](O)[C@H](N(C)C)[C@H]2O)[C@@H](CCN2C[C@H](C)C[C@H](C)C2)C[C@@H](C)C(=O)/C=C/C(C)=C/[C@@H]1CO[C@@H]1O[C@H](C)[C@@H](O)[C@@H](OC)[C@H]1OC", "note": "[Tilmicosin]", "values": [{"measurement": "Odds Ratio", "setting": "[1]; death", "result": 5.76}, {"measurement": "Death", "setting": "[1]; number of piglets, nursery feed for 4 days from day 15 of weaning", "result": 38}]}
{"molecule": "CC(=O)N[C@H]1[C@H]([C@H](O)[C@H](O)CO)OC(O)(C(=O)O)C[C@@H]1O", "note": "(some centres unmarked) [NANA, N-acetylneuraminic acid]", "values": [{"measurement": "stability", "setting": "[2]", "result": "stable at all the pH conditions"}]}
{"molecule": "MAb-Regn10987: naturally occurred human monoclonal antibody specific to the COVID-19 (SARS-CoV-2) S1 protein", "values": [{"measurement": "binding to damaged A549 cells", "setting": "[3]; A549 cells with missed sialic acid on the cell surface", "result": "strongly bound"}, {"measurement": "binding to healthy A549 cells", "setting": "[3]; healthy (intact) A549 cells", "result": "weakly bound"}, {"measurement": "binding to human fetal tissues", "setting": "[4]", "result": "bound"}, {"measurement": "binding to human inflammatory tissues or cancer tissues", "setting": "[5]", "result": "bound broadly"}, {"measurement": "histological changes of lungs of mouse pups (HE)", "setting": "[6]; mouse, in vivo", "result": "Acute lung inflammation and injury"}, {"measurement": "histology of the brains of mouse pups (HE)", "setting": "[6]; mouse, in vivo", "result": "Large amount of inflammatory cells infiltration"}, {"measurement": "Death (%)", "setting": "[6]; mouse, in vivo, ip", "result": 44.8, "unit": "%"}, {"measurement": "Sick (%)", "setting": "[6]; mouse, in vivo, ip", "result": 17.1, "unit": "%"}, {"measurement": "Sick + Death (%)", "setting": "[6]; mouse, in vivo, ip", "result": 61.9, "unit": "%"}, {"measurement": "Odds Ratio", "setting": "[6]; sick and death of mouse pups, vs saline", "result": 21.3}]}
{"molecule": "COC(=O)[C@]1(O)CC(O)[C@@H](NC(C)=O)C(C(O)[C@H](O)CO)O1", "note": "(some centres unmarked) [NANA-Me, N-acetylneuraminic acid methyl ester]", "values": [{"measurement": "deaths (survival rate)", "setting": "[7]; pH 1.5", "result": "ineffective"}, {"measurement": "deaths (survival rate)", "setting": "[7]; pH 3.5", "result": "ineffective"}, {"measurement": "deaths (survival rate)", "setting": "[7]; pH 4.5", "result": "significantly reduced deaths"}, {"measurement": "deaths (survival rate)", "setting": "[7]; pH 7", "result": "ineffective"}, {"measurement": "stability", "setting": "[2]", "result": "most stable at about pH 4.5 and least stable at about pH 7.3"}, {"measurement": "NANA-Me stability by ratio NANA:NANA-Me", "setting": "[2]; pH 7.4", "result": "most stable at NANA:NANA-Me of 1:4 and least stable at NANA:NANA-Me of 1:1"}]}
{"molecule": "CCOC(=O)C1=C[C@@H](OC(CC)CC)[C@H](NC(C)=O)[C@@H](N)C1", "note": "[Tamiflu]", "values": [{"measurement": "body weight", "setting": "[7]", "result": "maintained better body weight"}, {"measurement": "deaths (survival rate)", "setting": "[7]", "result": "significantly reduced the deaths"}, {"measurement": "inflammation of lung and intestine (HE stained tissue sections)", "setting": "[7]", "result": "Severe inflammation"}, {"measurement": "lung cytokine level of IL-1β", "setting": "[7]", "result": "remained abnormally higher"}, {"measurement": "lung cytokine level of IL-6", "setting": "[7]", "result": "remained abnormally higher"}, {"measurement": "lung cytokine level of TNF-α", "setting": "[7]", "result": "remained abnormally higher"}, {"measurement": "serum cytokine level of IL-6", "setting": "[7]", "result": "significantly reduced"}, {"measurement": "serum cytokine level of TNF-α", "setting": "[7]", "result": "significantly reduced"}, {"measurement": "deaths (survival rate)", "setting": "[7]; listed as Tamilu", "result": "did not show significant effect"}, {"measurement": "therapeutic efficacy compared to vehicle controls", "setting": "[8]", "result": "did not show significant efficacy"}]}
